Results from article PMC9784215, “Silymarin Protects against Acute Liver Injury Induced by Acetaminophen by Downregulating the Expression and Activity of the CYP2E1 Enzyme” (Molecules, 2022).

How the values were obtained:
[1] = molecular target: T1, CYP2E1 (Rattus norvegicus, UniProt P05182); experiment: Pharmacokinetics of probe substrate CLX and 6-OH-CLX in rats after 21 days of SM pretreatment; conditions: single oral 30 mg/kg CLX, solvent control group
Experimental: (§1) SD rats were randomly divided into two groups (six rats in each group). One group was orally administered 4% HP-β-CD (w/v) solution as a solvent control group and the other group was orally administered SM 45 mg/kg (dissolved in 4% HP-β-CD (w/v)) for 21 consecutive days. On the 22nd day, rats in the two groups were given a single oral dose of CLX 30 mg/kg (suspended in 0.5% CMC-Na solution (w/v)). […] After the final blood collection, rats were euthanized by intraperitoneal injection of 50% urethane.
(§2) The concentrations of APAP and its metabolites in rat plasma and the concentrations of CLX and 6-OH-CLX in rat plasma, and the phase I metabolic system in vitro were determined by HPLC—MS/MS. […] Briefly, a 50 μL plasma sample was vortexed with 10 μL of the internal standard solution, and 150 μL pf methanol was then added to the mixture and shaken for 3 min to precipitate the protein. The sample was centrifuged at 14,000 rpm for 5 min, and 10 µL of the supernatant was analyzed by LC–MS/MS. […] The noncompartmental analysis using Phoenix WinNonlin software (version 6.3, Pharsight Corp, Mountain View, CA, USA) was used to calculate the pharmacokinetic parameters of CLX and 6-OH-CLX.

[2] = tested on: APAP-induced ALI mice; experiment: APAP-induced ALI in mice: serum ALT/AST, liver reduced GSH, H&E histology; type: in vivo, mouse; conditions: APAP 350 mg/kg i.p., 24 h
Experimental: The levels of ALT and AST in mouse serum and reduced GSH in mouse livers were measured by West China Frontier Pharmatech (Chengdu, China).
The right lower lobe of the mouse liver was fixed with 4% paraformaldehyde for 24 h in preparation for H&E staining. The embedding and slicing processes for H&E staining were performed by Ao’Chuang Biotechnology Co., Ltd. (Chengdu, China). Images were acquired with a phase contrast microscope with 20× and 40× objective lenses. The scale bars were added with ImageJ software.

[3] = tested on: Cyp2e1; experiment: Cyp2e1 mRNA and protein expression in mouse liver (RT-qPCR, Western blot); type: in vivo; conditions: mice, single i.p. APAP 350 mg/kg, 24 h
From the text: Antibodies against CYP2E1 were kindly provided by Proteintech Biotechnology.

[4] = molecular target: T1, CYP2E1; conditions: in vivo
Experimental: as §1, §2

[5] = molecular target: T1, CYP2E1; conditions: microsomes
Experimental: (§3) The probe substrate CLX, 50 mM potassium phosphate buffer (KPI, pH 7.4), and 0.25 mg/mL HLMS or RLMs were mixed and then an NADPH-regenerating system (1 mM β-NADP, 5 mM D-glucose-6-phosphate, 1 U/mL glucose-6-phosphate dehydrogenase, and 5 mM MgCl2) were added to initiate reaction. […] HLMs or RLMs were incubated with CLX at 37 °C for 30 min. At the end of the incubation, 100 µL of precooled acetonitrile was added to terminate the reaction. After vortexing and centrifugation at 14,000 rpm for 5 min, 50 µL of supernatant mixed with 10 µL of the internal standard GEN was removed, and the sample was analyzed by HPLC–MS/MS.
(§4) Activities were expressed as a percentage of 6-OH-CLX production in the blank control.
(§5) Nonlinear regression analysis in GraphPad was used to calculate Km and Vmax. To determine the inhibitory type of CYP2E1 by SM, the above data were plotted as a Lineweaver–Burk plot.
(§6) Inhibition data were plotted as Dixon plots, and the inhibition constant (Ki) was calculated from the regression equation.

[6] = molecular target: CYP2E1 (Homo sapiens, UniProt P05181)
CYP2E1 (Homo sapiens, UniProt P05181), sequence (P05181 whole entry): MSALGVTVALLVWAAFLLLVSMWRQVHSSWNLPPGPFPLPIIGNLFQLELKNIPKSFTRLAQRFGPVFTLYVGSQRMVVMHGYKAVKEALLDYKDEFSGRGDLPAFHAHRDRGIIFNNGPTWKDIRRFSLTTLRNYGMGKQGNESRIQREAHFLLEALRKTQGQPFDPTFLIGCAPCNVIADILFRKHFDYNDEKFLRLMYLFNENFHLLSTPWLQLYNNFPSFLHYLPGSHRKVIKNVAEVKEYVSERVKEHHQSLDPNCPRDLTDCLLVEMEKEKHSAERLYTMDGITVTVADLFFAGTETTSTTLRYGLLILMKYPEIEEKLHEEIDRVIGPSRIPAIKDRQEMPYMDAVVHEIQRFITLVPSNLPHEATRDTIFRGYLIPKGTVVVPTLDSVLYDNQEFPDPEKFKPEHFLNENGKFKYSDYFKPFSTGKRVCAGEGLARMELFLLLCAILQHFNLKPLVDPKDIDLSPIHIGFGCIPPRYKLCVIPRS
Experimental: as §3, §4, §5, §6

T1 sequence (P05182 whole entry): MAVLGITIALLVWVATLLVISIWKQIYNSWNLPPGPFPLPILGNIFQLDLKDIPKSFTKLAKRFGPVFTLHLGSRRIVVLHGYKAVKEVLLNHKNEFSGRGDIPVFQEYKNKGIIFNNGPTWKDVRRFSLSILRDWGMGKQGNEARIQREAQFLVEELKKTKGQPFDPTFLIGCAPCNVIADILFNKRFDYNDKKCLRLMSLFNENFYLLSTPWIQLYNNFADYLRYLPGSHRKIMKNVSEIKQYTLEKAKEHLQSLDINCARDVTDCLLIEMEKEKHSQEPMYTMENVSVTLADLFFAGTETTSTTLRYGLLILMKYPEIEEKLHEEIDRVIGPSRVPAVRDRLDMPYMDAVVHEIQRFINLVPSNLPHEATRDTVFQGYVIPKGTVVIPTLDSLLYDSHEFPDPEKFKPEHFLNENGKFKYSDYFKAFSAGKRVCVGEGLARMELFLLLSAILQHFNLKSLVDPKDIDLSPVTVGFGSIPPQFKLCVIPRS

O=c1[nH]c2cc(Cl)c(O)cc2o1 [6-OH-CLX]
AUC0-t of 6-OH-CLX [1]: 287.58 ± 106.13 ng·h/mL | AUC0-∞ of 6-OH-CLX [1]: 325.78 ± 127.17 ng·h/mL

CC(=O)Nc1ccc(O)cc1 [APAP, Acetaminophen]
liver histopathology (H&E), hepatic lobule structure [2]: severely damaged | liver reduced GSH content vs solvent control group [2]: significantly reduced | serum ALT level vs solvent control group [2]: significantly increased | serum AST level vs solvent control group [2]: significantly increased | liver Cyp2e1 mRNA and protein expression vs solvent control group [3]: significantly upregulated

silymarin
CL of CLX [4]: 272.12 ± 41.99 mL/h/kg | Vd of CLX [4]: 1566.26 ± 674.78 mL/kg | t1/2 of CLX [4]: 3.92 ± 1.25 h | tmax of CLX [4]: 34.8 ± 18 min | IC50 [5]: 26.1 µM | Ki [5]: 9.49 µM | Km of CLX [6]: 1827 ± 318 µM | Vmax of CLX [6]: 4.56 ± 1.67 nM/h/mg Protein | IC50 ([6]; microsomes): 14.8 µM | Ki ([6]; microsomes): 23.2 µM
